Source: patent US5561131A, “Defaunation method” (Mallinckrodt Veterinary, Inc., priority 1991, dated 1996)
“And” between values parts separate entries of the source, which are not always exact repeats. Equal values may be shown once.

What was measured:
mice = test: Mouse safety assessment; format: in vivo; details: oral gavage, 830, 415 and 217 mg/kg, observed for 2 days
Experimental: Compounds of Table 1 chosen for testing in sheep were first tested in mice for signs of toxicity. Because sheep are approximately 5 times more sensitive than mice to compounds dosed orally, the dose rates applied to mice were 5 times greater than the target dose rate of 500 ppm. in rumen liquor (83 mg/kg live weight) used for sheep. Each compound was screened at three different dose levels, high (830 mg/kg), medium (415 mg/kg) and low (217 mg/kg).
252 mg of compound was used for dilution into a high medium and low dose rate. 252 mg of compound was mixed with 3 ml of G1284 solution (4% w/v ethoxylated castor oil and 0.05% w/v simethicone), to form the high dose composition. The medium dose composition was formed by diluting 1.5 ml of the high dose with 1.5 ml of G1284 solution. The low dose composition was formed by diluting 1.5 ml of the medium dose with 1.5 ml of G1284 solution. Before the high dose could be diluted it was first manually ball milled in an effort to produce a fine suspension of the compound.
All mice were weighed before dosing to calculate the appropriate dose rate. The calculation for dose rate was: [formula]
Each mouse was dosed using the Gavage method. With this method the mouse is dosed orally by way of an angled hypodermic needle (18 g) with a smooth spherical end. It is gently placed down the esophagus. All care must be taken not to force the needle and injure the esophagus or dose into the lungs.
Observations were made at 10, 30, 60 and 120 minutes after dosing, then every 1 or 2 hours for the first 6 hours.
Mice were usually observed for 2 days.
Typically, few compounds fell within the poor classification. The majority of compounds tested were either in the fair or good classification.

protozoa [1] = test: Pilot field testing: elimination of protozoal population in sheep; format: in vivo; details: week 3, 167 mg/kg
[2] = Effect of defaunation compounds on feed intake of sheep; format: in vivo; details: after dosing vs pre-dosing intake
Experimental: Sheep were allowed a minimum of three weeks to adapt to their ration of 900 g of oaten chaff and 100 g of Lucerne chaff. The pre-dosing level of intake for each animal was established from the mean of five days intake immediately prior to dosing. Any effects of administering the compound on feed intake was then determined by measuring the level of feed intake after dosing.
The criteria of classifying the effect on food intake are shown below.
Poor--greater than 50% reduction in feed intake during the first week after dosing.
Fair--greater than 50% reduction in feed intake on the day following dosing but less then 50% reduction one week after dosing.
OK--transient drop in feed intake which is less than 50% on the day after dosing.
Good--No reduction in feed intake following dosing.

protozoa [3] = test: Wool growth trial: protozoal number; format: in vivo; details: sheep, defaunated period, 167 mg/kg
Experimental: Seven sheep each were defaunated using a dose rate of 167 mg/kg. Compounds were administered by first mixing with 20 ml of ethanol and then with 200 ml of centrifuged rumen liquor. This solution was then administered via a flexible stomach tube directly into the rumen. The sheep were fed with a ration of 90% oaten chaff and 10% Lucerne chaff at a rate of 1000 g per day. The sheep were maintained in a defaunated state by their isolation from faunated sheep to prevent the possibility of refaunation. The sheep were allowed to adjust for 3 weeks after administering the compound before any wool growth measurements were taken.
At the start of the wool growth measurement period, a 10 cm square area of wool was removed from both sides of the sheep. After four weeks the same area was reclipped and the wool retained for scouring at the end of the trial.
The sheep then had protozoa introduced back into their rumen and were allowed to adjust for three weeks. Similarly, during the second four week period, the wool was clipped from the same patch area. The wool harvested during the two four week trial periods was then scoured of wool wax and extraneous material and weighed.

protozoa [4] = test: Cattle defaunation; format: in vivo; details: for Elimination of protozoa from cattle (in words): 332 mg/kg
Experimental: Four cattle each were defaunated using either compounds No. 27 or No. 37 at a dose rate of 332 mg/kg. The compounds were administered by firstly mixing with 100 mL of ethanol and then adding 400 mL of centrifuged rumen liquor. This mixture was then administered into the rumen of the animal using a stomach tube.

protozoa [5] = test: Reliability of defaunation using 2 repeated doses in sheep; format: in vivo; details: Group 1, 2 doses, 4 weeks
Experimental: (§1) Sheep were fed a diet of 900 g oaten chaff daily, except that food and water were withheld for 19 hours before and 24 hours after dosing. Each dose was prepared by mixing compound 37 with 20 ml of ethanol followed by 200 ml of centrifuged rumen liquor, to give a dose of 167 mg/kg body weight, administered by rumen tube. Rumen protozoa were counted weekly following the final treatment.
Sixty (60) Sheep, in three successive trials of 20 each, were treated with 2 doses of compound 37, one week apart, according to the method of Example 14. Protozoa were counted at 4 or 5 weeks after the second treatment.

[6] = The Pesticide Manual, 9th Ed. 1991; cited from earlier work
protozoa [7] = test: Protozoal population number in growing lambs; format: in vivo, lambs (sheep)
Experimental: (§2) Three cross-bred lambs were defaunated with compound 37 at dose rate of 332 mg per kg liveweight. The lambs were allowed four weeks to adapt to defaunation before commencing the trial. The lambs were grazed at pasture. Ten control (faunated) cohorts of the defaunated group, which were matched for liveweight, were grazed in the same paddock, but separated from the defaunated lambs by a double-fence (4 meter separation). This was to prevent the faunated lambs contaminating the defaunated lambs. Both groups of lambs were weighed on four occasions at three weekly intervals. Protozoa were also monitored at the same time.

[8] = Liveweight gain of growing lambs; format: in vivo, lambs (sheep); details: 332 mg/kg
Experimental: as §2

rumen protozoa = test: Defaunation using single or 2 or 3 repeated doses in sheep; format: in vivo; details: individual sheep
Experimental: as §1
Table 9: The effect of administering compound 37 (from table 1) on mean protozoal numbers in rumen in sheep.

Compound: Cc1ccc(Nc2nc(Cl)nc(Cl)n2)cc1Cl [Compound 27, 2,4 dichloro-6-(3 chloro-4-methylanilino)-s-triazine]
- Mouse Safety Assessment (mice): Fair (>2 mice sick)
- Protozoal number (protozoa [1]): 0 per mL × 10^3
- Feed Intake [2]: Okay (transient drop, less than 50% at day 2)
- Prot. Number (protozoa [3]): 0 per mL × 10^3
- Elimination of protozoa from cattle (in words) (protozoa [4]): able to eliminate protozoa from cattle
- Mean protozoal number (protozoa [4]; week 0, 332 mg/kg): 220 per mL × 10^3
- Mean protozoal number (protozoa [4]; week 4, 332 mg/kg): 0 per mL × 10^3

Compound: Clc1nc(Cl)nc(Nc2ccccc2Cl)n1 [Compound 37, 2,4-dichloro-6-(2-chloroanilino)-1,3,5-triazine]
- Residual protozoal population (in words) (protozoa [5]): one sheep had a residual protozoal population
- LD50 [6]: > 4000 mg/kg
- Protozoal numbers (protozoa [7]; week 0, 332 mg/kg): 0 per mL × 10^3
- Protozoal numbers (protozoa [7]; week 3, 332 mg/kg): 0 per mL × 10^3
- Protozoal numbers (protozoa [7]; week 6, 332 mg/kg): 0 per mL × 10^3
- Protozoal numbers (protozoa [7]; week 9, 332 mg/kg): 0 per mL × 10^3
- Protozoal numbers (protozoa [7]; week 12, 332 mg/kg): 0 per mL × 10^3
- Protozoal number (protozoa [1]): 0 per mL × 10^3
- Feed Intake [2]: Okay (transient drop, less than 50% at day 2)
- Prot. Number (protozoa [3]): 0 per mL × 10^3
- Rate of liveweight gain (in words) ([8]; over controls, P<0.01): highly significant improvement in the rate of liveweight gain
- ADG Increase ([8]; relative to control): 65%
- ADG ([8]; weeks 0-12): 165 g/day
- Protozoal Count (rumen protozoa; 2 doses 1 wk apart at 167 mg/kg/dose, week 0, 167 mg/kg): 64,000 number/mL of rumen fluid and 68,500 number/mL of rumen fluid and 94,000 number/mL of rumen fluid
- Protozoal Count (rumen protozoa; 2 doses 1 wk apart at 167 mg/kg/dose, week 1): 0 number/mL of rumen fluid
- Protozoal Count (rumen protozoa; 2 doses 1 wk apart at 167 mg/kg/dose, week 2): 0 number/mL of rumen fluid
- Protozoal Count (rumen protozoa; 2 doses 1 wk apart at 167 mg/kg/dose, week 3): 0 number/mL of rumen fluid
- Protozoal Count (rumen protozoa; 2 doses 1 wk apart at 167 mg/kg/dose, week 4): 0 number/mL of rumen fluid
- Protozoal Count (rumen protozoa; 3 doses 1 wk apart at 167 mg/kg per dose, week 0, 167 mg/kg): 259,000 number/mL of rumen fluid and 242,500 number/mL of rumen fluid and 122,500 number/mL of rumen fluid
- Protozoal Count (rumen protozoa; 3 doses 1 wk apart at 167 mg/kg per dose, week 1): 0 number/mL of rumen fluid
- Protozoal Count (rumen protozoa; 3 doses 1 wk apart at 167 mg/kg per dose, week 2): 0 number/mL of rumen fluid
- Protozoal Count (rumen protozoa; 3 doses 1 wk apart at 167 mg/kg per dose, week 3): 0 number/mL of rumen fluid
- Protozoal Count (rumen protozoa; 3 doses 1 wk apart at 167 mg/kg per dose, week 4): 0 number/mL of rumen fluid
- Protozoal Count (rumen protozoa; single dose 167 mg/kg, week 0, 167 mg/kg): 151,500 number/mL of rumen fluid and 300,000 number/mL of rumen fluid and 149,500 number/mL of rumen fluid
- Protozoal Count (rumen protozoa; single dose 167 mg/kg, week 1): 0 number/mL of rumen fluid
- Protozoal Count (rumen protozoa; single dose 167 mg/kg, week 2, 167 mg/kg): 370,000 number/mL of rumen fluid and 0 number/mL of rumen fluid and 4,500 number/mL of rumen fluid
- Protozoal Count (rumen protozoa; single dose 167 mg/kg, week 3): 88,800 number/mL of rumen fluid
- Elimination of protozoa from cattle (in words) (protozoa [4]): able to eliminate protozoa from cattle
- Mean protozoal number (protozoa [4]; week 0, 332 mg/kg): 313 per mL × 10^3
- Mean protozoal number (protozoa [4]; week 4, 332 mg/kg): 0 per mL × 10^3
